Source: article PMC10797628

Tests used:
human 5-HT1B receptor [1] = molecular target: T1, human 5-HT1B receptor (Homo sapiens, UniProt P28222); assay: cAMP accumulation (LANCE Ultra TR-FRET) in HEK293T cells, WT 5-HT1B; assay type: cell-based; conditions: for 5-HT1B EMAX (%) / Emax: normalized to basal (0%) and 10 μM 5-CT (100%); for EC50: 5-HT1B pEC50, WT receptor; for Emax: HEK-293T, read-out: 5-HT1B EMAX (%), WT receptor
T1 construct: host or cells: HEK293T
Method: (§1) Briefly, cells transfected with the desired receptor construct and compounds were incubated in the dark for 90 min at 37 °C. After incubation, cAMP detection reagents were added, and TR-FRET was used to quantify the cAMP produced.
(§2) The functional activity of compounds was determined by stimulating cells expressing the desired receptor with FSK and test compound in parallel with 12 known concentrations of cAMP. The known concentrations of cAMP were used to create a standard curve for each experiment that was used to interpolate the unknown values of cAMP in wells with test compounds. […] The EC50 and EMAX values were determined using the “dose response – log[agonist] vs response (three parameter)” nonlinear regression model in Prism and transformed to pEC50 values, reported as mean ± SD.
(§3) Summary of functional assay conditions at various 5-HT1 receptor point mutation constructs.

human 5-HT1D receptor [2] = molecular target: T2, human 5-HT1D receptor (Homo sapiens, UniProt P28221); assay: cAMP accumulation (LANCE Ultra TR-FRET) in HEK293T cells, WT 5-HT1D; assay type: cell-based; conditions: for 5-HT1D EMAX (%): WT receptor; for 5-HT1D EMAX (%) / Emax: normalized to basal (0%) and 10 μM 5-CT (100%); for EC50: 5-HT1D pEC50, WT receptor, cAMP accumulation, HEKt cells, mean ± SD; for Emax: HEK-293T, read-out: 5-HT1D EMAX (%), WT receptor
T2 construct: host or cells: HEK293T
T2 sequence (P28221 whole entry): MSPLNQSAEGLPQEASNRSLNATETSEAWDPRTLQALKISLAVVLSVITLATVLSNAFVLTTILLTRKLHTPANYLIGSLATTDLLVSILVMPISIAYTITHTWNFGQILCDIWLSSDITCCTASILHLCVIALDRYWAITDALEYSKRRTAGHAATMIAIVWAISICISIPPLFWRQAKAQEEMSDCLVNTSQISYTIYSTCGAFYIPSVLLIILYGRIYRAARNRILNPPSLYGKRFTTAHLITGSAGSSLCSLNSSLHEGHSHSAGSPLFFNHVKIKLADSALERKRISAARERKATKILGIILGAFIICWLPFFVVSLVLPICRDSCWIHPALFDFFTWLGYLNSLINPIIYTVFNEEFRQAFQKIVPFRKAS
Method: as §1, §2, §3

S5.42A 5-HT1B receptor = S5.42A 5-HT1B receptor (Homo sapiens, UniProt P28222, S212A); assay: cAMP accumulation in HEK293T cells, S5.42A 5-HT1B; assay type: cell-based; parameters: host or cells: HEK293T; conditions: point-mutated receptor, 3 independent experiments
S5.42A 5-HT1B receptor, sequence (P28222 whole entry S212A): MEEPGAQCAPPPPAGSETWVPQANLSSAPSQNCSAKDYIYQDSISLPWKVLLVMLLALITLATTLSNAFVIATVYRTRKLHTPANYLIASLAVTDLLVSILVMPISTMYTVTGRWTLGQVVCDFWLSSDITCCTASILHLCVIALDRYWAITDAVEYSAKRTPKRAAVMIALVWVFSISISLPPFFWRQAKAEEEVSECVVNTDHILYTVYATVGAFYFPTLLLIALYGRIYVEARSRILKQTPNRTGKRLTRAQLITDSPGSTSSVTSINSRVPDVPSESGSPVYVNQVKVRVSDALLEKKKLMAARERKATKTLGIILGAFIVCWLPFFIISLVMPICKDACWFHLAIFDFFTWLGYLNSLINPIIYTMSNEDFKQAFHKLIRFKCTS
Method: as §1, §2
Cell Type Receptor Cell Density [Forskolin] Incubation time
as §3

human 5-HT1A receptor [3] = molecular target: T3, human 5-HT1A receptor (Homo sapiens, UniProt P08908); assay: Radioligand binding (saturation and competition), WT 5-HT1A; conditions: WT receptor, [^3H]5-CT competition, mean ± SD; for Ki: Affinity (pKi ± SD) 5-HT1A
T3 construct: host or cells: HEK293T
T3 sequence (P08908 1-422): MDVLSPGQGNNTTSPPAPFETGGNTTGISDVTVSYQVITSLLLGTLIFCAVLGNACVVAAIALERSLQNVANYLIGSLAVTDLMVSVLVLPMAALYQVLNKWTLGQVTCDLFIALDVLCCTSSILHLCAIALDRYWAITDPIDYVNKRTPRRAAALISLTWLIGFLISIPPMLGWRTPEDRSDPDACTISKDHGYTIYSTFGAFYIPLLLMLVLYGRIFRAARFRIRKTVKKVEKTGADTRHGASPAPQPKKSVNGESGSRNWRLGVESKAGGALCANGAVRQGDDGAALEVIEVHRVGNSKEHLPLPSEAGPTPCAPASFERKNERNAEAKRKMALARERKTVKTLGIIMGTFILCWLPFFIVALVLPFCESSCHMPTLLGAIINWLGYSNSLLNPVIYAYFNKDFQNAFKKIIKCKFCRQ

human 5-HT1B receptor [4] = molecular target: T1, human 5-HT1B receptor; assay: Radioligand binding (saturation and competition), WT 5-HT1B; conditions: Affinity (pKi ± SD) 5-HT1B, WT receptor; [^3H]5-CT competition; mean ± SD
human 5-HT1D receptor [5] = molecular target: T2, human 5-HT1D receptor; assay: Radioligand binding (saturation and competition), WT 5-HT1D; conditions: Affinity (pKi ± SD) 5-HT1D, WT receptor; [^3H]5-CT competition; mean ± SD
human 5-HT1F receptor = molecular target: T4, human 5-HT1F receptor (Homo sapiens, UniProt P30939); assay: Radioligand binding (saturation and competition), WT 5-HT1F
T4 construct: host or cells: HEK293T
T4 sequence (P30939 1-366): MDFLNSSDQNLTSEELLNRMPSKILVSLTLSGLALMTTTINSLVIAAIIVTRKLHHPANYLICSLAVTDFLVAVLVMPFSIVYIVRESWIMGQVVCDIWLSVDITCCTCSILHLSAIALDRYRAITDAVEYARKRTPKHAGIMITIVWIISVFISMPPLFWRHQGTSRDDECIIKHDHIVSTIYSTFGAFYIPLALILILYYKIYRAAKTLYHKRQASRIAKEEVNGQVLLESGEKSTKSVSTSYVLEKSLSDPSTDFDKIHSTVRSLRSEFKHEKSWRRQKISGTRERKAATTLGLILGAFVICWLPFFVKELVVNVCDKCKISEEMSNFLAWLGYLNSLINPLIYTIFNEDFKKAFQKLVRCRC

human 5-HT1A receptor [6] = molecular target: T3, human 5-HT1A receptor; assay: cAMP accumulation (LANCE Ultra TR-FRET) in HEK293T cells, WT 5-HT1A; assay type: cell-based; conditions: for EC50: 5-HT1A pEC50, WT receptor, cAMP accumulation, HEKt cells, mean ± SD; for Emax: HEK-293T, read-out: 5-HT1A EMAX (%), WT receptor
Method: as §1, §2, §3

[7] = normalized to basal (0%) and 10 μM 5-CT (100%)
[8] = cAMP accumulation, HEKt cells, mean ± SD

T1 sequence (P28222 whole entry): as the sequence (P28222 whole entry S212A) above, with A212S counted along it

SMILES | 5-HT1B pEC50 (human 5-HT1B receptor [1]; WT receptor, cAMP accumulation, HEKt cells, mean ± SD) | 5-HT1B EMAX (%) (human 5-HT1B receptor [1]; WT receptor) | 5-HT1D EMAX (%) (human 5-HT1D receptor [2]) | change in potency (qualitative) (S5.42A 5-HT1B receptor) | Affinity (pKi ± SD) 5-HT1A (human 5-HT1A receptor [3]) | Ki (human 5-HT1B receptor [4]) [nM] | Ki (human 5-HT1D receptor [5]) [nM] | Ki (human 5-HT1F receptor) [µM] | EC50 (human 5-HT1A receptor [6]) [nM] | Emax (human 5-HT1A receptor [6]; [7]) [%] | EC50 (human 5-HT1B receptor [1]; [8]) [nM] | Emax (human 5-HT1B receptor [1]) [%] | EC50 (human 5-HT1D receptor [2]) [nM] | Emax (human 5-HT1D receptor [2]) [%] | Ki (human 5-HT1A receptor [3]) [nM] | 5-HT1A EMAX (%) (human 5-HT1A receptor [6]; WT receptor, normalized to basal (0%) and 10 μM 5-CT (100%))
NCCc1c[nH]c2ccc(C(N)=O)cc12 [5-CT, 5-carboxamidotryptamine, reference compound] | 8.46 ± 0.18 | 100 ± 1 | 101 ± 1 | significant reduction |  |  |  |  |  |  |  |  |  |  |  | 
CN(C)[C@H]1CCc2c(cccc2-c2ccco2)C1 [(S)-FAT] |  |  |  |  | 7.48 ± 0.06 | 132 | 11.7 | 9.33 | 490 | 92 ± 4 | 117 | 102 ± 3 | 12 | 100 ± 2 |  | 
CN(C)[C@H]1CCc2c(cccc2-c2cccn2C)C1 [(S)-NMP] |  | 54 ± 5 | 66 ± 6 |  |  | 5.75 | 3.98 | > 10 | 27.5 | < 85 | 11.2 |  | 8.32 | < 85 | 20.4 | 70 ± 5
CN(C)[C@H]1CCc2c(cccc2-c2cccs2)C1 [(S)-TAT] |  |  |  |  |  | 6.31 | 1.7 | > 10 | 23.4 | 91 ± 3 | 15.8 | 85 ± 4 | 41.7 | 60 ± 3 | 6.17 | 
